Where “and” joins values, the source holds several entries; their conditions need not be identical. Identical values can stand only once. Counter-ions that a name gives are not always drawn. Numbered stars: 1 amine (or outer) side, 2 acyl side, 3 side chain; on linkers, the order of the positions; unused ones are H or OH. Square brackets hold non-standard residues; d marks the D form. Peptide text beside a SMILES is read from it. X1 = O=C1C(N[*:1])Cc2ccccc2CN1CCC(=O)[*:2]; Dmt = Cc1cc(O)cc(C)c1C[C@H](N)C(=O)O
Key:
[1] = cited from earlier work
[2] = cited from earlier work; for Blood–brain barrier transport mechanism: in vitro cell-based human model with BBB-PAMPA
Sprague-Dawley rats [3] = assay: Whole-body plethysmography, respiratory effects in rats; details: for Inspiratory time E0 / Inspiratory time Emax / Peak of respiratory effects (time) / TI, AUC method, in comparison to controls / Effect on expiratory time (TE) versus baseline, time-course / Effect on minute volume (VM) versus baseline, time-course: IV; for Inspiratory time E0 / Inspiratory time Emax: rats, TI(Tmax) − TI(T0), sigmoidal Emax model, mean (CV%); for Peak of respiratory effects (time) / TI, AUC method, in comparison to controls: time-course study 3A; for Effect on expiratory time (TE) versus baseline, time-course: KGNOP1 from 5 to 240 min, KGOP1 from 15 to 120 min; for Effect on minute volume (VM) versus baseline, time-course: morphine at 30 min, KGNOP1 from 5 to 45 min, KGOP1 at 15 min; for Time after injection at which significant increase in TI started: IV 17.52 μmol/kg morphine, 17.62 μmol/kg tramadol, 0.34 μmol/kg KGNOP1 or KGOP1
[4] = as above; details: Sprague-Dawley, rat, in vivo, iv; for ED50: rats, plethysmography at Tmax, sigmoidal Emax model, mean (CV%)
NOP receptor = target: NOP receptor; set-up: method as in PMID 27035422; details: mean ± SEM; read-out: Binding affinity (Ki) NOP receptor; cited from earlier work
[5] = tested on: SN-CCI Sprague-Dawley rats; assay: Cold-plate test, cold hyperalgesia in SN-CCI rats; assay type: in vivo, rat; details: for Persistence of effects on cold hyperalgesia after injection: IV 0.34 μmol/kg KGNOP1 or KGNOP3 (persisted up to), 17.62 μmol/kg tramadol (declined after), observation 420 min; for Cold hyperalgesia Tmax (time of peak effect): IV 0.34 μmol/kg KGNOP1 or KGNOP3, 17.62 μmol/kg tramadol
Protocol: We used the chronic constriction injury of the sciatic nerve (SN-CCI) model to induce neuropathic pain in rats.[4] The rat's right sciatic nerve was exposed under anesthesia using ketamine (70 mg/kg intraperitoneally [IP]) and xylazine (10 mg/kg IP). Subsequently, the nerve was ligated proximally to the sciatic trifurcation with four 4-0 chromic gut sutures (Ethicon, Issy-les-Moulineaux, France). Rats were then returned to their individual cages for a recovery period of 14 days, allowing complete anesthesia washout and neuropathic pain development.
The individual SN-CCI rats were kept inside a transparent cylinder on the cooled surface of the plate (4.0°C ± 0.2°C; Panlab, Barcelona, Spain).[15] The total leg lift counts of the right hind paw were counted for 5 minutes. Counts were excluded when the hind paw was lifted while walking. The first measurement was performed after a 10-minute period of accommodation while the animal was quiet. Drugs were intravenously (IV) administered at T0. […] The percentage of decrease in leg lift counts was calculated based on the following equation: [drawing 1]
Cold hyperalgesia was assessed during 420 minutes after the drug administration. Tmax was determined for each drug.

δ-opioid receptor = target: δ-opioid receptor; set-up: method as in PMID 27035422; details: mean ± SEM; read-out: Binding affinity (Ki) δ-opioid receptor; cited from earlier work
[6] = tested on: guinea pig ileum (mu-opioid receptor); set-up: method as in PMID 27035422; details: mean ± SEM, read-out: Opioid activity (IC50) GPI; cited from earlier work
Sprague-Dawley rats [7] = assay: Hot-plate test, thermal nociception in rats; assay type: in vivo, rat; details: IV, sigmoidal Emax model
Protocol: The individual rats were kept inside a transparent cylinder on the heated surface of the plate (52.0°C ± 0.2°C; Panlab).[27] Licking, brisk shaking of the hind paw, and jumping were considered as signs of thermal nociception. The cut-off time was set at 60 seconds. The first measurement was performed after a 10-minute period of accommodation while the animal was quiet. Drugs were intravenously (IV) administered at T0. Thermal nociception was recorded at −30, −15, −5, 5, 10, 15, 30, 45, 60, 90, 120, 180, 240, 300, 360, and 420 minutes (study 2A). […] The maximum possible effect (MPE%) was calculated based on the following equation: [drawing 2]
The pharmacological model was applied to the investigated drug effects using the maximum likelihood expectation maximization algorithm implemented in WinNonlin (Version 5.1; Pharsight, Princeton, NJ). A standard error variance model was defined as: [drawing 4] where yi is the ith predicted value from the pharmacological model. All model parameters were assumed to be log-normally distributed. Model selection was based on goodness-of-fit criteria, which included the convergence criterion (CV%), the Akaike information criterion, the estimation criterion value for the maximum likelihood method, and the visual inspection of predicted vs observed and residual plots. Estimated parameters for dose–effect relationships are expressed as mean (CV%).
Thermal nociception was measured during 420 minutes after the drug administration. Tmax was determined for each drug.
Thermal nociception was performed to assess the ED50 at the Tmax previously observed in study 2A.

Sprague-Dawley rats [8] = assay: Benefit-to-respiratory toxicity ratio (ED50 ratio); details: from ED50 on cold hyperalgesia and ED50 on VM, SN-CCI rat, IV
[9] = IV, SN-CCI rats, sigmoidal Emax model, mean (CV%)

Row | Structure (SMILES) | Blood–brain barrier transport mechanism [2] | Inspiratory time E0 (Sprague-Dawley rats [3]) | Inspiratory time Emax (Sprague-Dawley rats [3]) | Peak of respiratory effects (time) (Sprague-Dawley rats [3]) [min] | TI, AUC method, in comparison to controls (Sprague-Dawley rats [3]) | Effect on expiratory time (TE) versus baseline, time-course (Sprague-Dawley rats [3]) | Effect on minute volume (VM) versus baseline, time-course (Sprague-Dawley rats [3]) | Tmax ([4]; 0.34 μmol/kg) [h] | ED50 ([4]; Inspiratory time (TI) ED50, IV) [µmol/kg] | ED50 ([4]; Minute volume (VM) ED50, IV) [µmol/kg] | Persistence of effects on cold hyperalgesia after injection [5] | Cold hyperalgesia Tmax (time of peak effect) ([5]; SN-CCI rats) [min] | Cold hyperalgesia E0 (baseline effect) [5, 9] | Cold hyperalgesia Emax [5, 9] | Time after injection at which significant increase in TI started (Sprague-Dawley rats [3]) [min] | other results
1 | CC[C@H](C)[C@H](NC(=O)[C@H](CCCNC(=N)N)NC(=O)[C@H](Cc1ccc(O)cc1)NC(=O)[C@H](Cc1ccc(O)cc1)NC(=O)[C@H](CCCNC(=N)N)NC(=O)CCN1Cc2ccccc2CC(NC(=O)[C@@H](CCCNC(=N)N)NC(=O)[C@@H](N)Cc2c(C)cc(O)cc2C)C1=O)C(=O)N[C@@H](CCCCN)C(N)=O (stereo partly drawn) [KGNOP1, H-Dmt-D-Arg-Aba-βAla-Arg-Tyr-Tyr-Arg-Ile-Lys-NH2] (H-[Dmt][dR][X1]RYYRIK-NH2) | transported by active mechanisms and not through passive diffusion | 0.06 (13.1) s | 0.16 (16.1) s | 180 | not | significantly decreased | increased | 3 | 0.63 | 0.57 | – | – | – | – | – | Stability against enzymatic degradation [1]: has stability against enzymatic degradation; Blood–brain barrier penetration [2]: able to penetrate the blood–brain barrier; VT, AUC method, in comparison to morphine-treated rats (Sprague-Dawley rats [3]; IV 0.34 μmol/kg, P < 0.05): significantly decreased; TE, AUC method, in comparison to morphine- and tramadol-treated rats (Sprague-Dawley rats [3]; IV 0.34 μmol/kg, P < 0.05 and P < 0.01): significantly decreased
2 | CC[C@H](C)[C@H](NC(=O)[C@H](CCCNC(=N)N)NC(=O)[C@H](Cc1ccc(O)cc1)NC(=O)[C@H](Cc1ccc(O)cc1)NC(=O)[C@H](CCCNC(=N)N)NC(C)=O)C(=O)N[C@@H](CCCCN)C(N)=O [KGNOP3, Ac-Arg-Tyr-Tyr-Arg-Ile-Lys-NH2] | transported by active mechanisms and not through passive diffusion | – | – | – | – | – | – | – | – | – | […] | 5 | −20.1 (20.7) % | −76 (5.1) % | – | Ki (NOP receptor): […]; Cold hyperalgesia ED50 ([5]; IV, SN-CCI rats, cold-plate test at Tmax, sigmoidal Emax model, mean (CV%)): 0.32 μmol/kg and 0.29 (9) μmol/kg
3 | Cc1cc(O)cc(C)c1C[C@H](N)C(=O)N[C@H](CCCNC(=N)N)C(=O)NC1Cc2ccccc2CN(CCC(N)=O)C1=O (stereo partly drawn) [KGOP1, H-Dmt-D-Arg-Aba-βAla-NH2] | transported by active mechanisms and not through passive diffusion | 0.029 (9.7) s | 0.15 (15.1) s | 240 | not | significantly decreased | increased | 4 | 0.52 | 0.66 | – | – | – | – | – | Ki (δ-opioid receptor): 17 ± 0.3 nM; IC50 [6]: 0.8 ± 0.1 nM
4 | CN1CC[C@]23c4c5ccc(O)c4O[C@H]2[C@@H](O)C=C[C@H]3[C@H]1C5 [Morphine, Morphine sulfate, reference compound] | – | 0.006 (11.5) s | 0.16 (5.9) s | – | – | did not exhibit significant effects | decreased | – | 12.2 | 10.6 | – | – | – | – | 5 | Effect on tidal volume (VT) versus baseline, time-course (Sprague-Dawley rats [3]; IV 17.52 μmol/kg, at 5, 90, 120, 180, 240, 300 and 360 min): reduction; Thermal nociception Emax (Sprague-Dawley rats [7]; MPE%, mean (CV%)): 100 (5.1) %; Thermal nociception E0 (baseline effect) (Sprague-Dawley rats [7]; * fixed value): 0* %; ED50 (Sprague-Dawley rats [7]; Rattus norvegicus, hot-plate test at Tmax, mean (CV%)): 14.7 µmol/kg
5 | COc1cccc(C2(O)CCCCC2CN(C)C)c1 (stereo not drawn) [Tramadol, Tramadol hydrochloride, reference compound] | – | 0.006 (14.7) s | 0.17 (34.6) s | 30 | not | did not exhibit significant effects | – | – | 50.9 | 50 | 60 min | 5 | −26.4 (21.6) % | −92 (5.6) % | 180 | Benefit-to-respiratory toxicity ratio, neuropathic pain (ED50 ratio) (Sprague-Dawley rats [8]): 0.24; ED50 ([5]; Rattus norvegicus, IV, SN-CCI rats, cold-plate test at Tmax, sigmoidal Emax model, mean (CV%)): 12.1 µmol/kg; VM, AUC method, compared to controls (Sprague-Dawley rats [3]; IV 17.62 μmol/kg, P < 0.05): significantly decreased; Tmax [4]: 0.5 h
